Data reported in patent publication US9802901B2, “Antibacterial 2H-indazole derivatives” (priority 2013, dated 2017).
In brackets after ≈: the same amount, converted by molar mass. Where a name gives a salt, the structure may show the parent alone. Read-outs that look alike come from different tables or passages of the source.

Experiments:
Assay in all cases: Bacterial growth minimal inhibitory concentration (broth microdilution, CLSI M7-A7)
P. aeruginosa ATCC27853 = assay type: cell-based, Pseudomonas aeruginosa; conditions: Pseudomonas aeruginosa
Method: (§1) Minimal Inhibitory Concentrations (MICs; mg/L) were determined in cation-adjusted Mueller-Hinton Broth by a microdilution method following the description given in “Methods for Dilution Antimicrobial Susceptibility Tests for Bacteria that Grow Aerobically”, Approved standard, 7th ed., Clinical and Laboratory Standards Institute (CLSI) Document M7-A7, Wayne, Pa., USA (2006).
(§2) All Example compounds, except the compound of Example 62, were tested against several Gram-positive and Gram-negative bacteria. […] K. pneumoniae A-651 and Acinetobacter baumannii T6474 are multiply-resistant strains (in particular quinolone-resistant), while E. coli ATCC25922 and P. aeruginosa ATCC27853 are quinolone-sensitive strains.

[1] = test system: Acinetobacter baumannii T6474; assay type: cell-based; conditions: Acinetobacter baumannii
Method: as §1, §2

K. pneumoniae A-651 = assay type: cell-based, Klebsiella pneumoniae; conditions: Klebsiella pneumoniae
Method: as §1, §2

E. coli ATCC25922 = assay type: cell-based, Escherichia coli; conditions: Escherichia coli
Method: as §1, §2

[2] = ATCC27853, cation-adjusted Mueller-Hinton Broth, microdilution, quinolone-sensitive strain, read-out: MIC for P. aeruginosa ATCC27853
[3] = T6474, cation-adjusted Mueller-Hinton Broth, microdilution, multiply-resistant (quinolone-resistant) strain, read-out: MIC for A. Baumannii T6474
[4] = A651, cation-adjusted Mueller-Hinton Broth, microdilution, multiply-resistant (quinolone-resistant) strain, read-out: MIC for K. Pneumoniae A-651
[5] = ATCC25922, cation-adjusted Mueller-Hinton Broth, microdilution, quinolone-sensitive strain, read-out: MIC for E. coli ATCC25922

Row | MIC (P. aeruginosa ATCC27853; [2]) [µg/mL] | MIC [1, 3] [µg/mL] | MIC (K. pneumoniae A-651; [4]) [µg/mL] | MIC (E. coli ATCC25922; [5]) [µg/mL] | Structure (SMILES) | MIC (P. aeruginosa ATCC27853; ATCC27853, read-out: MIC for P. aeruginosa ATCC27853) [µg/mL] | MIC ([1]; T6474, read-out: MIC for A. Baumannii T6474) [µg/mL] | MIC (K. pneumoniae A-651; A651, read-out: MIC for K. Pneumoniae A-651) [µg/mL] | MIC (E. coli ATCC25922; ATCC25922, read-out: MIC for E. coli ATCC25922) [µg/mL]
1 | 4 (≈ 8.82 µM) | 2 (≈ 4.41 µM) | 0.5 (≈ 1.1 µM) | 0.125 (≈ 0.276 µM) | COc1ccc(-c2ccc3nn(CC[C@](C)(C(=O)NO)S(C)(=O)=O)cc3c2F)c(F)c1 [Example 6, (R)-4-[4-fluoro-5-(2-fluoro-4-methoxy-phenyl)-indazol-2-yl]-N-hydroxy-2-methylsulfonyl-2-methyl-butanamide] |  |  |  | 
2 | 1 | 2 | 0.25 | 0.125 | C[C@@](CCn1cc2cc(C#Cc3ccc(C4(N)CC4)cc3)ccc2n1)(C(=O)NO)S(C)(=O)=O.O=CO [Example 79, (R)-4-(5-((4-(1-aminocyclopropyl)phenyl)ethynyl)-2H-indazol-2-yl)-N-hydroxy-2-methyl-2-(methylsulfonyl)butanamide formate] |  |  |  | 
3 | 2 (≈ 4 µM) | > 32 | 8 (≈ 16 µM) | 4 (≈ 8.01 µM) | CC(C)(N)C(=O)N1CC(C#CC#Cc2ccc3nn(CC[C@](C)(C(=O)NO)S(C)(=O)=O)cc3c2)C1 [Example 85, (R)-4-(5-((1-(2-amino-2-methylpropanoyl)azetidin-3-yl)buta-1,3-diyn-1-yl)-2H-indazol-2-yl)-N-hydroxy-2-methyl-2-(methylsulfonyl)butanamide] |  |  |  | 
4 | 2 (≈ 4.69 µM) | 0.5 (≈ 1.17 µM) | 0.125 (≈ 0.293 µM) | 0.063 (≈ 0.148 µM) | C[C@@](CCn1cc2cc(C#Cc3ccc(N)cc3)ccc2n1)(C(=O)NO)S(C)(=O)=O [Example 19, (R)-4-[5-(4-amino-phenylethynyl)-indazol-2-yl]-N-hydroxy-2-methylsulfonyl-2-methyl-butanamide] |  |  |  | 
5 | 0.5 (≈ 1.1 µM) | 0.5 (≈ 1.1 µM) | 0.063 (≈ 0.138 µM) | 0.063 (≈ 0.138 µM) | C[C@@](CCn1cc2cc(C#Cc3ccc(CCO)cc3)ccc2n1)(C(=O)NO)S(C)(=O)=O [Example 25, (R)—N-hydroxy-4-{5-[4-(2-hydroxy-ethyl)-phenylethynyl]-indazol-2-yl}-2-methylsulfonyl-2-methyl-butanamide] |  |  |  | 
6 | 8 | 4 | 0.25 | 0.125 | CC(CCn1cc2cc(-c3ccc(-c4ncco4)cc3)ccc2n1)(C(=O)NO)S(C)(=O)=O.O=CO (racemic) [RE6, (RS)—N-hydroxy-2-methylsulfonyl-2-methyl-4-[5-(4-oxazol-2-yl-phenyl)-indazol-2-yl]-butanamide formic acid salt] |  |  |  | 
7 | 2 (≈ 4.67 µM) | > 8 | 4 (≈ 9.33 µM) | 2 (≈ 4.67 µM) | C[C@@](CCn1cc2cc(C#CC#C[C@@H]3C[C@H]3CN)ccc2n1)(C(=O)NO)S(C)(=O)=O [Example 72, (R)-4-(5-(((1R,2R)-2-(aminomethyl)cyclopropyl)buta-1,3-diyn-1-yl)-2H-indazol-2-yl)-N-hydroxy-2-methyl-2-(methylsulfonyl)butanamide] |  |  |  | 
8 | 2 (≈ 4.35 µM) | 1 (≈ 2.18 µM) | 0.5 (≈ 1.09 µM) | 0.125 (≈ 0.272 µM) | C[C@@](CCn1cc2cc(C#Cc3ccc(CO)c(F)c3)ccc2n1)(C(=O)NO)S(C)(=O)=O [Example 22, (R)-4-[5-(3-fluoro-4-hydroxymethyl-phenylethynyl)-indazol-2-yl]-N-hydroxy-2-methylsulfonyl-2-methyl-butanamide] |  |  |  | 
9 |  |  |  |  | C[C@@](CCn1cc2cc(C#CC#CC3(N)COC3)ccc2n1)(C(=O)NO)S(C)(=O)=O [Example 48, (R)-4-(5-((3-aminooxetan-3-yl)buta-1,3-diyn-1-yl)-2H-indazol-2-yl)-N-hydroxy-2-methyl-2-(methylsulfonyl)butanamide formate] | 2 | > 32 | 4 | 2
10 | 4 (≈ 9.58 µM) | 1 (≈ 2.4 µM) | 0.5 (≈ 1.2 µM) | 0.125 (≈ 0.299 µM) | COc1ccc(-c2ccc3nn(CC[C@](C)(C(=O)NO)S(C)(=O)=O)cc3c2)cc1 [Example 2, (R)—N-hydroxy-2-methylsulfonyl-4-[5-(4-methoxy-phenyl)-indazol-2-yl]-2-methyl-butanamide] |  |  |  | 
11 | 2 (≈ 4.3 µM) | 2 (≈ 4.3 µM) | 1 (≈ 2.15 µM) | 0.5 (≈ 1.07 µM) | C[C@@](CCn1cc2cc(-c3ccc(OCCO)cc3F)ccc2n1)(C(=O)NO)S(C)(=O)=O [Example 50, (R)-4-(5-(2-fluoro-4-(2-hydroxyethoxy)phenyl)-2H-indazol-2-yl)-N-hydroxy-2-methyl-2-(methylsulfonyl)butanamide] |  |  |  | 
12 | 4 (≈ 9.23 µM) | > 32 | 8 (≈ 18.5 µM) | 4 (≈ 9.23 µM) | C[C@@](O)(C#CC#Cc1ccc2nn(CC[C@](C)(C(=O)NO)S(C)(=O)=O)cc2c1)CO [Example 46, (R)-4-(5-((R)-5,6-dihydroxy-5-methylhexa-1,3-diyn-1-yl)-2H-indazol-2-yl)-N-hydroxy-2-methyl-2-(methylsulfonyl)butanamide] |  |  |  | 
13 | 4 | 4 | 1 | 0.5 | CC(CCn1cc2cc(-c3ccc(OCCCN4CCOCC4)cc3)ccc2n1)(C(=O)NO)S(C)(=O)=O.O=CO (racemic) [RE1, (RS)—N-hydroxy-2-methylsulfonyl-2-methyl-4-{5-[4-(3-morpholin-4-yl-propoxy)-phenyl]-indazol-2-yl}-butanamide formic acid salt] |  |  |  | 
14 | 0.25 (≈ 0.519 µM) | 0.125 (≈ 0.26 µM) | 0.063 (≈ 0.131 µM) | 0.063 (≈ 0.131 µM) | C[C@@](CCn1cc2cc(C#Cc3ccc([C@H]4C[C@@H]4CO)cc3)ccc2n1)(C(=O)NO)S(C)(=O)=O [Example 42, (R)—N-hydroxy-4-(5-((4-((1S,2S)-2-(hydroxymethyl)cyclopropyl)phenyl)ethynyl)-2H-indazol-2-yl)-2-methyl-2-(methylsulfonyl)butanamide] |  |  |  | 
15 | 8 | 8 | 2 | 1 | CC(CCn1cc2cc(-c3ccc(OCCN4CCOCC4)cc3F)ccc2n1)(C(=O)NO)S(C)(=O)=O.O=CO (racemic) [RE3, (RS)-4-{5-[2-fluoro-4-(2-morpholin-4-yl-ethoxy)-phenyl]-indazol-2-yl}-N-hydroxy-2-methylsulfonyl-2-methyl-butanamide formic acid salt] |  |  |  | 
16 | 1 (≈ 1.99 µM) | 1 (≈ 1.99 µM) | 0.25 (≈ 0.498 µM) | 0.125 (≈ 0.249 µM) | CC(CCn1cc2cc(C#Cc3ccc(C4(O)COC4)cc3)c(F)cc2n1)(C(=O)NO)S(C)(=O)=O (stereo not shown) [Example 40, 4-(6-fluoro-5-((4-(3-hydroxyoxetan-3-yl)phenyl)ethynyl)-2H-indazol-2-yl)-N-hydroxy-2-methyl-2-(methylsulfonyl)butanamide] |  |  |  | 
17 | 1 (≈ 2.4 µM) | 32 (≈ 76.6 µM) | 0.5 (≈ 1.2 µM) | 0.5 (≈ 1.2 µM) | CC(C)(O)C#CC#Cc1ccc2nn(CC[C@](C)(C(=O)NO)S(C)(=O)=O)cc2c1 [Example 32, (R)—N-hydroxy-4-[5-(5-hydroxy-5-methyl-hexa-1,3-diynyl)-indazol-2-yl]-2-methylsulfonyl-2-methyl-butanamide] |  |  |  | 
18 | 8 (≈ 19.3 µM) | 0.25 (≈ 0.602 µM) | 2 (≈ 4.81 µM) | 0.5 (≈ 1.2 µM) | CC(CCn1cc2cc(CCc3ccccc3)ccc2n1)(C(=O)NO)S(C)(=O)=O (racemic) [RE5, (RS)—N-hydroxy-2-methylsulfonyl-2-methyl-4-(5-phenethyl-indazol-2-yl)-butanamide] |  |  |  | 
19 | 2 (≈ 4 µM) | > 32 | 1 (≈ 2 µM) | 1 (≈ 2 µM) | C[C@@](CCn1cc2cc(C#CC#CC3CCC(NC(=O)CN)C3)ccc2n1)(C(=O)NO)S(C)(=O)=O (stereo partly drawn) [Example 70, (R)-4-(5-((3-(2-aminoacetamido)cyclopentyl)buta-1,3-diyn-1-yl)-2H-indazol-2-yl)-N-hydroxy-2-methyl-2-(methylsulfonyl)butanamide] |  |  |  | 
20 | 1 (≈ 2.12 µM) | 8 (≈ 17 µM) | 0.5 (≈ 1.06 µM) | 0.5 (≈ 1.06 µM) | C[C@@](CCn1cc2cc(C#Cc3ccc([C@@H](O)CO)cc3)ccc2n1)(C(=O)NO)S(C)(=O)=O [Example 26, (2R)-4-{5-[4-((R)-1,2-dihydroxy-ethyl)-phenylethynyl]-indazol-2-yl}-N-hydroxy-2-methylsulfonyl-2-methyl-butanamide] |  |  |  | 
21 | 0.5 (≈ 1.04 µM) | ≤ 0.063 | 0.125 (≈ 0.26 µM) | ≤ 0.063 | C[C@@](CCn1cc2cc(-c3ccc(C#C[C@H]4C[C@@H]4CO)cc3)ccc2n1)(C(=O)NO)S(C)(=O)=O (relative stereo) [Example 60, (R)—N-hydroxy-4-(5-(4-(((1S*,2S*)-2-(hydroxymethyl)cyclopropyl)ethynyl)phenyl)-2H-indazol-2-yl)-2-methyl-2-(methylsulfonyl)butanamide] |  |  |  | 
22 | 1 (≈ 2.08 µM) | 0.125 (≈ 0.26 µM) | 0.063 (≈ 0.131 µM) | 0.125 (≈ 0.26 µM) | C[C@@](CCn1cc2cc(C#Cc3ccc([C@@H]4C[C@H]4CO)cc3)ccc2n1)(C(=O)NO)S(C)(=O)=O [Example 41, (R)—N-hydroxy-4-(5-((4-((1R,2R)-2-(hydroxymethyl)cyclopropyl)phenyl)ethynyl)-2H-indazol-2-yl)-2-methyl-2-(methylsulfonyl)butanamide] |  |  |  | 
